Literature values in patent publication US20080045583A1, “STABLE LEVETIRACETAM COMPOSITIONS AND METHODS” (priority 2006, published 2008).

Conditions: oral, with or without food

## CC[C@@H](C(N)=O)N1CCCC1=O [Levetiracetam, (−)-(S)-α-ethyl-2-oxo-1-pyrrolidine acetamide]
  bioavailability, effect of food: not affected by food
